US20180221369A1, “COMPOSITIONS AND METHODS FOR TREATING FIBROSING DISORDERS AND CANCER” (Cedars-Sinai Medical Center, priority 2014, published 2018)

Legend:
[1] = system: cerulein-induced pancreatic fibrosis; assay: Cerulein-induced pancreatic fibrosis (chronic pancreatitis) mouse model, Picro-Sirius Red quantitation; assay type: in vivo, C57BL/6J mice; details: cerulein plus 120 mg INNO-406/kg per day oral gavage for 6 weeks; cerulein alone 16.39+/−3.08%, untreated 2.00+/−0.84%
Source text: There is no optimal animal model available for human pancreatitis-induced fibrosis, to date. However, a most commonly used experimental model of chronic pancreatitis (CP) partially recapitulating human disease is repeated injection of cerulein into mice (Ulmasov, B. et al. Am J Pathol. 183, 692-708 (2013)). C57BL/6 is the most frequently used mouse strain for this type of biomedical research. In our current experiments, C57BL/6J mice (2 months old male and female) were divided into 3 groups (each group consisted of 15 animals) as follows: (1) untreated mice (saline only); (2) mice treated with cerulein for 6 weeks (50 μg/kg hourly, 6 hourly injections in one day constituted one treatment, twice-weekly); (3) mice treated with cerulein (as above) plus 120 mg INNO-406/kg per day for 6 weeks (oral gavage). When 120 mg INNO-406/kg per day is administrated orally to the mice, the concentration of INNO-406 in the soft tissues is estimated to be 0.24 μM according to pharmacokinetic studies described previously (Kimura, S. et al. Blood., 106, 3948-3954 (2005); Yokota, A, et al. Blood, 109, 306-314 (2007)). […] Picro sirius red quantitation were performed using Leica Biosystem Tissue IA Optimizer web-based program that measures positive stained intensity per area at 10× magnification. […]

[2] = 120 mg INNO-406/kg per day orally to mice; estimated according to previously described pharmacokinetic studies; cited from earlier work
[3] = system: normal stellate cells (hNP); details: SDF-1 0.025 μM, 2 h, AMD3100 5-50 μM 60 minutes
Procedure: (§1) The migration assays were performed by using transwell migration assays with polycarbonate membrane inserts with 8 μm pore size that is optimal for fibroblast-like cell migration (Corning Incorporated, NY, cat #3422). Stellate cells were treated with siRNA (100 nM) for 48 h, or with increasing concentrations of AMD3100 (5 μM-50 μM) or INNO-406 (10 nM-100 nM) for 60 minutes. Then, cells were placed in the migration upper chambers, in the presence or absence of SDF-1 (0.025 μM) with 2% FBS in the lower chambers. After 2 h of incubation, cells migrated to the lower chamber were counted, and the chemotactic index was determined as follows:
(§2) (number of cells migrating to SDF-1 chemokine)/(number of cells migrating to medium alone)
(§3) To distinguish chemotaxis versus chemokinesis, a control checkerboard analysis was performed.

[4] = system: chronic pancreatitis stellate cells (hCP); assay: Transwell migration assay with SDF-1, chronic pancreatitis stellate cells; assay type: cell-based, human; details: SDF-1 0.025 μM, 2 h; siRNA 100 nM 48 h, AMD3100 5-50 μM or INNO-406 10-100 nM 60 minutes
Procedure: as §1, §2, §3

SMILES | pancreatic fibrosis (Picro-Sirius Red positive stained area per total area) [1] | concentration of INNO-406 in the soft tissues [2] [µM] | SDF-1/CXCR4-induced chemotaxis (chemotactic index) [3] | SDF-1/CXCR4-induced chemotaxis (chemotactic index) [4]
Cc1ccc(NC(=O)c2ccc(CN3CC[C@H](N(C)C)C3)c(C(F)(F)F)c2)cc1Nc1nccc(-c2cncnc2)n1 [INNO-406, Bafetinib] | 7.50+/−4.77% | 0.24 |  | 
c1cc(CN2CCCNCCNCCCNCC2)ccc1CN1CCCNCCNCCCNCC1 [AMD3100] |  |  | could be blocked | could be blocked
